Source: US20250099448A1, “HETEROCYCLIC COMPOUNDS” (Hoffmann-La Roche Inc., priority 2022, published 2025)

Each compound was assayed against T1, MAGL protein (Homo sapiens, UniProt Q99685) (assay: 2-AG assay: MAGL inhibitory activity by hydrolysis of 2-arachidonoylglycerol to arachidonic acid, followed by mass spectrometry). Details: 8 μM 2-arachidonoylglycerol, 15 min preincubation, 30 min reaction at RT, RapidFire MS readout.
T1 sequence (Q99685 1-303): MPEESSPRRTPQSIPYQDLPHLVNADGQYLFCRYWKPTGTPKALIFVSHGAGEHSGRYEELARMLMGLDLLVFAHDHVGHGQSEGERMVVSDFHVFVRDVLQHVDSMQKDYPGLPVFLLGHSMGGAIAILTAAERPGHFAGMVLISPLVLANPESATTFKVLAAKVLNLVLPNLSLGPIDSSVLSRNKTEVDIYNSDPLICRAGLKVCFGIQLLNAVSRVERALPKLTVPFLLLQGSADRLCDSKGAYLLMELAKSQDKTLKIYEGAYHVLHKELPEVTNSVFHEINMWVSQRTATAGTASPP
Assay type: biochemical
Protocol: Compounds of formula (I) were profiled for MAGL inhibitory activity by determining the enzymatic activity by following the hydrolysis of the natural substrate 2-arachidonoylglycerol (2-AG) resulting in arachidonic acid, which can be followed by mass spectrometry. This assay is hereinafter abbreviated “2-AG assay”. The 2-AG assay was carried out in 384 well polypropylene assay plates. Compound dilutions were made in 100% DMSO in a polypropylene plate in 3-fold dilution steps to give a final concentration range in the assay from 12.5 μM to […]. Compound dilutions were added to MAGL protein in assay buffer (50 mM TRIS, 1 mM EDTA, 0.01% (v/v) Tween-20, 2.5% (v/v) DMSO). After shaking, the plate was incubated for 15 min at RT. To start the reaction, 2-arachidonoylglycerol in assay buffer was added. The final concentrations in the assay was […] for MAGL protein and 8 μM 2-arachidonoylglyerol. After shaking and 30 min incubation at RT, the reaction was quenched by the addition of two assay volumes of acetonitrile containing 4 μM of d8-arachidonic acid. The amount of arachidonic acid formed was traced by an online SPE system (Agilent Rapidfire) coupled to a triple quadrupole mass spectrometer. A C18 SPE cartridge (Agilent G9205A) was used in an acetonitrile/water liquid setup. The mass spectrometer was operated in negative electrospray mode following the mass transitions 303.1→259.1 for arachidonic acid and 311.1→267.0 for d8-arachidonic acid. The activity of the compounds was calculated based on the ratio of intensities [arachidonic acid/d8-arachidonic acid].
In the case of `CS(=O)(=O)c1cc(F)ccc1CC1CC2(C1)CN(C(=O)N1CC3(CC(c4nnc(C5CC5)[nH]4)C3)C1)C2` [compound 24], the IC50 is reported as 0.7 nM.
In the case of `O=C(N1CC2(CC(c3nnc(C4CCC4)[nH]3)C2)C1)N1CC2(C1)CN(S(=O)(=O)c1ccc(OC(F)(F)F)cc1)C2` [compound 93], the IC50 is reported as 143 nM.
Work on `O=C(N1CC2(CC(c3nc(C4(F)CC4)n[nH]3)C2)C1)N1CC2(CN(Cc3ncc(C(F)(F)F)s3)C2)C1` [compound 598] yielded an IC50 of 1.89 nM.
Compound `CS(=O)(=O)c1ccc(OCC2CCN(C(=O)N3CC4(CC(c5n[nH]c(C6CC6)n5)C4)C3)CC2)cc1C(F)(F)F` [Example 924, [6-(5-cyclopropyl-1H-1,2,4-triazol-3-yl)-2-azaspiro[3.3]heptan-2-yl]-[4-[[4-mesyl-3-(trifluoromethyl)phenoxy]methyl]piperidino]methanone] has an IC50 of 49.2 nM.
`CS(=O)(=O)c1ccc(OCC2CCN(C(=O)N3CC4(CC(c5nc(C6(O)CC6)n[nH]5)C4)C3)CC2)cc1C(F)(F)F` [Example 922] showed an IC50 of 326 nM.
Work on `O=C(N1CC(C23CC(C(F)(F)c4ccc(C(F)(F)F)cc4)(C2)C3)C1)N1CC2(CC(c3nc(C4(O)CC4)n[nH]3)C2)C1` [compound 974] yielded an IC50 of 6.17 nM.
For `CS(=O)(=O)c1cc(C(F)(F)F)ccc1C1CC2(C1)CN(C(=O)N1CC3(CC(c4nnc(C5CC5)[nH]4)C3)C1)C2` [compound 803], the IC50 was 1.39 nM.
`O=C(N1CC(c2ccc(N3CCS(=O)(=O)CC3)nc2)C1)N1CC2(CC(c3nnc(C4CC4)[nH]3)C2)C1` [compound 80] gave an IC50 of 58.3 nM.
`O=C(N1CC(c2cnc(CNC3(C(F)(F)F)CC3)cn2)C1)N1CC2(CC(c3nc(C4CC4)n[nH]3)C2)C1` [compound 443] showed an IC50 of 2.47 nM.
With `NC(=O)C1CC(F)(F)CCN1c1ccc(C2CN(C(=O)N3CC4(CC(c5nnc(C6CC6)[nH]5)C4)C3)C2)cc1` (stereo not drawn) [compound 385] the IC50 was 3.76 nM.
`O=C(N1CC2(CC(Cc3ccc4[nH]ncc4n3)C2)C1)N1CC2(CC(c3nc(C4CC4)n[nH]3)C2)C1` [compound 684] was tested, and the IC50 was 4.33 nM.
Compound `O=C(N1CC2(CCC(Oc3cnc(C(F)(F)F)cn3)CC2)C1)N1CC2(CC(c3nnc(C4CC4)[nH]3)C2)C1` [compound 74] has an IC50 of 0.77 nM.
Work on `CS(=O)(=O)c1cc(Cl)ccc1-c1ccc(C2CN(C(=O)N3CC4(CC(c5ncn[nH]5)C4)C3)C2)cc1` [compound 454] yielded an IC50 of 129 nM.
Work on `Cn1nc(C(F)(F)F)cc1CC1CC2(C1)CN(C(=O)N1CC3(CC(c4nc(C5CC5)n[nH]4)C3)C1)C2` [compound 785] yielded an IC50 of 0.39 nM.
For `O=C(N1CC2(CC(c3nc(C4CC4)n[nH]3)C2)C1)N1CC2(CN(Cc3cnc(C(F)F)s3)C2)C1` [compound 651], the IC50 was 9.48 nM.
`O=C(N1CC2(CC(Cn3cc(OC(F)F)ccc3=O)C2)C1)N1CC2(CC(c3nc(C4CC4)n[nH]3)C2)C1` [compound 724] was tested, and the IC50 was 3.8 nM.
`O=C(N1CC(c2ccc(-c3nnc(C4(C(F)(F)F)CC4)[nH]3)cc2)C1)N1CC2(CC(c3nc(C4CC4)n[nH]3)C2)C1` [compound 377] showed an IC50 of 4.29 nM.
With `O=C(N1CCC(CNS(=O)(=O)c2ccc(OC(F)(F)F)cc2)CC1)N1CC2(CC(c3nnc(C4CC4)[nH]3)C2)C1` [compound 251] the IC50 was 23.9 nM.
Compound `Cc1c(CN2CC3(C2)CN(C(=O)N2CC4(CC(c5nnc(C6CC6)[nH]5)C4)C2)C3)cnn1C` [compound 897] has an IC50 of 308 nM.
Compound `NC(=O)[C@H]1CC(F)(F)CCN1c1ccc(C2CN(C(=O)N3CC4(CC(c5nnc(C6CC6)[nH]5)C4)C3)C2)cc1` [Example 396, (2R)-1-[4-[1-[6-(5-cyclopropyl-4H-1,2,4-triazol-3-yl)-2-azaspiro[3.3]heptane-2-carbonyl]azetidin-3-yl]phenyl]-4,4-difluoro-piperidine-2-carboxamide] has an IC50 of 4.77 nM.
For `O=C(N1CC2(CC(Cc3ccc(OC(F)(F)F)nc3)C2)C1)N1CC2(CC(c3nc(C4(O)CC4)n[nH]3)C2)C1` [compound 710], the IC50 was 2.61 nM.
For `O=C(N1CC(c2ccc(N3CC(O)(C(F)(F)F)C3)nc2)C1)N1CC2(CC(c3nnc(C4CC4)[nH]3)C2)C1` [compound 275], the IC50 was 2.07 nM.
`CS(=N)(=O)c1cc(C(F)(F)F)ccc1CC1CC2(C1)CN(C(=O)N1CC3(CC(c4nc(C5CC5)n[nH]4)C3)C1)C2` (stereo not drawn) [compound 481] was tested, and the IC50 was 1.06 nM.
`O=C(N1CC2(CC(Cc3cc(C(F)F)[nH]n3)C2)C1)N1CC2(CC(c3nc(C4(O)CC4)n[nH]3)C2)C1` [compound 615] gave an IC50 of 1.65 nM.
`O=C(N1CC2(CC(Cn3cc(C(F)(F)F)ccc3=O)C2)C1)N1CC2(CC(c3nc(C4(O)CC4)n[nH]3)C2)C1` [compound 621] gave an IC50 of 3.62 nM.
`O=C(N1CC2(CC(Cc3cc(C(F)F)[nH]n3)C2)C1)N1CC2(CC(c3nc(C4CC(F)(F)C4)n[nH]3)C2)C1` [compound 495] showed an IC50 of 140 nM.
In the case of `O=C(N1CC2(CC(Cc3nc(C(F)(F)F)ns3)C2)C1)N1CC2(CC(c3nnc(C4(O)CC4)[nH]3)C2)C1` [compound 60], the IC50 is reported as 4.03 nM.
`O=C(N1CC2(CC(Cc3n[nH]c(C(F)(F)F)n3)C2)C1)N1CC2(CC(c3nc(C4CC4)n[nH]3)C2)C1` [compound 494] was tested, and the IC50 was 3.69 nM.
`O=C(N1CC2(CC(Cc3cncc(S(=O)(=O)C(F)(F)F)c3)C2)C1)N1CC2(CC(c3nc(C4CC4)n[nH]3)C2)C1` [compound 731] gave an IC50 of 0.18 nM.
In the case of `N#Cc1cc(CC2CC3(C2)CN(C(=O)N2CC4(CC(c5nnc(C6CC6)[nH]5)C4)C2)C3)cnc1C(F)(F)F` [compound 833], the IC50 is reported as 0.39 nM.
`N#Cc1cc(CC2CC3(C2)CN(C(=O)N2CC4(CC(c5nc(C6COC6)n[nH]5)C4)C2)C3)ccc1C(F)(F)F` [compound 808] gave an IC50 of 0.29 nM.
For `CS(=O)(=O)c1ccc(CC2CC3(C2)CN(C(=O)N2CC4(CC(c5nc(C6CC(F)(F)C6)n[nH]5)C4)C2)C3)nc1` [compound 977], the IC50 was 2580 nM.
`CNc1nnc(-c2ccc(C3CN(C(=O)N4CC5(CC(c6nnc(C7CC7)[nH]6)C5)C4)C3)cc2)s1` [Example 600, [6-(5-cyclopropyl-4H-1,2,4-triazol-3-yl)-2-azaspiro[3.3]heptan-2-yl]-[3-[4-[5-(methylamino)-1,3,4-thiadiazol-2-yl]phenyl]azetidin-1-yl]methanone] showed an IC50 of 4.25 nM.
For `Cc1cc(C2CC2)nn1-c1ccc(C2CN(C(=O)N3CC4(CC(c5nnc(C6CC6)[nH]5)C4)C3)C2)cc1` [compound 288], the IC50 was 0.19 nM.
With `O=C(N1CC2(CCC(Nc3cnc(C(F)(F)F)cn3)CC2)C1)N1CC2(CC(c3nnc(C4CC4)[nH]3)C2)C1` [compound 351] the IC50 was 3.59 nM.
With `O=C(N1CC2(CC(Cc3ccc4[nH]ncc4n3)C2)C1)N1CC2(CC(c3nc(C4(O)CC4)n[nH]3)C2)C1` [compound 692] the IC50 was 20.1 nM.
For `O=C(N1CC(Cc2ccc(Cl)cc2)C1)N1CC2(CC(c3nnc(C4(O)CC4)[nH]3)C2)C1` [compound 361], the IC50 was 45.6 nM.
`O=C(N1CC(NCc2ccc(C(F)(F)F)c(F)c2)C1)N1CC2(CC(c3nnc(C4CC4)[nH]3)C2)C1` [compound 193] gave an IC50 of 45.5 nM.
Work on `O=C(N1CC2(CCC(Cc3ncc(F)cc3F)C2)C1)N1CC2(CC(c3nnc(C4CC4)[nH]3)C2)C1` (single isomer, unassigned) [compound 148] yielded an IC50 of 0.17 nM.
Compound `O=C(N1CC(c2ccc(NC3(C(F)(F)F)CC3)cc2)C1)N1CC2(CC(c3nnc(C4CC4)[nH]3)C2)C1` [compound 274] has an IC50 of 0.23 nM.
`CC(C)(C)Cc1nnc(C23CC(C4CN(C(=O)N5CC6(CC(c7nc(C8CC(F)(F)C8)n[nH]7)C6)C5)C4)(C2)C3)s1` [compound 583] was tested, and the IC50 was 295 nM.
For `O=C(N1CC(OCC2(C(F)(F)F)CC2)C1)N1CC2(CC(c3nnc(C4CC4)[nH]3)C2)C1` [compound 331], the IC50 was 109 nM.
`O=C(N1CC2(CC(Cc3ccc(OC(F)(F)F)cn3)C2)C1)N1CC2(CC(c3nnc(C4CC4)[nH]3)C2)C1` [compound 8] showed an IC50 of 0.13 nM.
`O=C(N1CC2(CC(Cn3cncc3C3(C(F)(F)F)CC3)C2)C1)N1CC2(CC(c3nc(C4CC4)n[nH]3)C2)C1` [compound 964] gave an IC50 of 0.44 nM.
`CS(=O)(=O)c1ccc(CC2CC3(C2)CN(C(=O)N2CC4(CC(c5nnc(C6CCC6)[nH]5)C4)C2)C3)cc1` [compound 14] showed an IC50 of 14.8 nM.
`O=C(N1CC2(CC(c3nc(C4CC4)n[nH]3)C2)C1)N1CC2(CN(Cc3ccc(C(F)(F)F)cc3F)C2)C1` [compound 584] showed an IC50 of 0.48 nM.
`O=C(N1CC2(CC(Cn3cc(C(F)(F)F)cn3)C2)C1)N1CC2(CC(c3nc(C4(F)CC4)n[nH]3)C2)C1` [compound 523] showed an IC50 of 0.53 nM.
`O=C(N1CC2(CC(Cc3ccc(F)cc3C(F)(F)F)C2)C1)N1CC2(CC(c3nnc(C4CC4)[nH]3)C2)C1` [compound 33] showed an IC50 of 0.01 nM.
Compound `O=C(N1CC2(CC(c3nnc(C4CC4)[nH]3)C2)C1)N1CC2(C1)CN(S(=O)(=O)c1ccc(F)c(C(F)(F)F)c1)C2` [compound 102] has an IC50 of 15 nM.
`Cn1ncc(CC2CC3(C2)CN(C(=O)N2CC4(CC(c5nc(C6CC6)n[nH]5)C4)C2)C3)c1C(F)(F)F` [compound 729] was tested, and the IC50 was 0.09 nM.
In the case of `O=C(N1CC2(CC(NCc3ccc(C(F)(F)F)cc3F)C2)C1)N1CC2(CC(c3nnc(C4CC4)[nH]3)C2)C1` [compound 185], the IC50 is reported as 1.65 nM.
